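Cells were grown in 96-well plates and exposed to each compound for 48 hours at five concentrations; endpoints were interpolated linearly between bracketing concentrations, or set to the highest concentration if not reached. GI50 marks 50% less growth.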 Active and inactive are the calls of the source. No stated cut-off is given here; in the data, active = GI50 up to about 1.1 µM and inactive = higher.
Legend:
Assay in all cases: DTP human tumour cell line panel, 48 h
786-0 = tested on: 786-0
A498 = tested on: A498
A549 = tested on: A549
ACHN = tested on: ACHN
BT-549 = tested on: BT-549
CAKI-1 = tested on: CAKI-1
CCRF-CEM = tested on: CCRF-CEM
COLO 205 = tested on: COLO 205
DU-145 = tested on: DU-145
EKVX = tested on: EKVX
HCC 2998 = tested on: HCC 2998
HCT-116 = tested on: HCT-116
HCT-15 = tested on: HCT-15
HL-60 = tested on: HL-60
HOP-62 = tested on: HOP-62
HOP-92 = tested on: HOP-92
HT-29 = tested on: HT-29
Hs-578T = tested on: Hs-578T
IGROV-1 = tested on: IGROV-1
K562 = tested on: K562
KM12 = tested on: KM12
LOX IMVI = tested on: LOX IMVI
M14 = tested on: M14
MCF7 = tested on: MCF7
MDA-N = tested on: MDA-N
MOLT-4 = tested on: MOLT-4
Malme-3M = tested on: Malme-3M
NCI-H226 = tested on: NCI-H226
NCI-H23 = tested on: NCI-H23
NCI-H460 = tested on: NCI-H460
NCI-H522 = tested on: NCI-H522
NCI/ADR-RES = tested on: NCI/ADR-RES
OVCAR-3 = tested on: OVCAR-3
OVCAR-4 = tested on: OVCAR-4
OVCAR-5 = tested on: OVCAR-5
OVCAR-8 = tested on: OVCAR-8
PC-3 = tested on: PC-3
RPMI-8226 = tested on: RPMI-8226
RXF 393 = tested on: RXF 393
SF-268 = tested on: SF-268
SF-295 = tested on: SF-295
SF-539 = tested on: SF-539
SK-MEL-28 = tested on: SK-MEL-28
SK-MEL-2 = tested on: SK-MEL-2
SK-MEL-5 = tested on: SK-MEL-5
SK-OV-3 = tested on: SK-OV-3
SN12C = tested on: SN12C
SNB-19 = tested on: SNB-19
SNB-75 = tested on: SNB-75
SR = tested on: SR
SW-620 = tested on: SW-620
T47D = tested on: T47D
TK-10 = tested on: TK-10
U-251 = tested on: U-251
UACC-257 = tested on: UACC-257
UO-31 = tested on: UO-31
MDA-MB-231 = tested on: MDA-MB-231
UACC-62 = tested on: UACC-62

Measured: GI50

Cc1cc(S(=O)(=O)Nc2nc(N)nc(N3CCOCC3)n2)c(SCC(=O)O)cc1Cl
> 10 µM: HCT-15
inactive: 786-0 > 10 µM | A498 > 10 µM | A549 > 10 µM | ACHN > 10 µM | BT-549 > 10 µM | CAKI-1 > 10 µM | CCRF-CEM > 10 µM | COLO 205 > 10 µM | DU-145 > 10 µM | EKVX > 10 µM | HCC 2998 > 10 µM | HCT-116 > 10 µM | HL-60 > 10 µM | HOP-62 > 10 µM | HOP-92 > 10 µM | HT-29 > 10 µM | Hs-578T > 10 µM | IGROV-1 > 10 µM | K562 > 10 µM | KM12 > 10 µM | LOX IMVI > 10 µM | M14 > 10 µM | MCF7 > 10 µM | MDA-N > 10 µM | MOLT-4 > 10 µM | Malme-3M > 10 µM | NCI-H226 > 10 µM | NCI-H23 > 10 µM | NCI-H460 > 10 µM | NCI-H522 > 10 µM | NCI/ADR-RES > 10 µM | OVCAR-3 > 10 µM | OVCAR-4 > 10 µM | OVCAR-5 > 10 µM | OVCAR-8 > 10 µM | PC-3 > 10 µM | RPMI-8226 > 10 µM | RXF 393 > 10 µM | SF-268 > 10 µM | SF-295 > 10 µM | SF-539 > 10 µM | SK-MEL-28 > 10 µM | SK-MEL-2 > 10 µM | SK-MEL-5 > 10 µM | SK-OV-3 > 10 µM | SN12C > 10 µM | SNB-19 > 10 µM | SNB-75 > 10 µM | SR > 10 µM | SW-620 > 10 µM | T47D > 10 µM | TK-10 > 10 µM | U-251 > 10 µM | UACC-257 > 10 µM | UO-31 > 10 µM

O=C1CSCc2sccc21
inactive: 786-0 > 100 µM | A498 > 100 µM | A549 > 100 µM | ACHN > 100 µM | BT-549 > 100 µM | CAKI-1 > 100 µM | CCRF-CEM > 100 µM | COLO 205 > 100 µM | DU-145 > 100 µM | EKVX > 100 µM | HCC 2998 15 µM | HCT-116 > 100 µM | HL-60 > 100 µM | HOP-62 > 100 µM | HT-29 > 100 µM | Hs-578T > 100 µM | IGROV-1 > 100 µM | K562 > 100 µM | KM12 > 100 µM | M14 > 100 µM | MCF7 > 100 µM | MDA-MB-231 > 100 µM | MDA-N > 100 µM | MOLT-4 > 100 µM | NCI-H226 > 100 µM | NCI-H23 > 100 µM | NCI-H460 > 100 µM | NCI-H522 > 100 µM | NCI/ADR-RES > 100 µM | OVCAR-3 > 100 µM | OVCAR-4 > 100 µM | OVCAR-5 > 100 µM | OVCAR-8 > 100 µM | PC-3 > 100 µM | SF-268 > 100 µM | SF-295 > 100 µM | SF-539 > 100 µM | SK-MEL-28 > 100 µM | SK-MEL-2 > 100 µM | SK-MEL-5 > 100 µM | SK-OV-3 > 100 µM | SN12C > 100 µM | SNB-19 > 100 µM | SNB-75 52.8 µM | SR > 100 µM | SW-620 > 100 µM | T47D > 100 µM | TK-10 > 100 µM | U-251 > 100 µM | UACC-257 > 100 µM | UACC-62 > 100 µM | UO-31 > 100 µM
> 100 µM: HCT-15
active: RXF 393 < 0.01 µM

From ChEMBL document CHEMBL1201862, “PubChem BioAssay data set” (2004)
